Measurements reported in patent US20220354835A1, “COMPOUNDS FOR DEGRADING TAU PROTEIN AGGREGATES AND USES THEREOF” (Aprinoia Therapeutics Limited, priority 2019, published 2022).

target: T1, heparin-induced aggregated tau (aTau), full-length 2N4R human Tau (Homo sapiens, UniProt P10636); assay: In vitro fluorometric aTau binding assay; details: 0.04 μM aTau, serially diluted compound 10 to 0.00017 μM, 37° C. 1 hour, fluorescence
T1 construct: transformed with a full-length 2N4R tau expression plasmid; made in house; host or cells: E. coli BL21
Procedure: (§1) (A) Expression and purification of human Tau: 1 mM IPTG (Sangon Biotech, Cat. No A100487) was used to induce production of tau by bacteria (BL21, Invitrogen, Cat. No C600003) transformed with a full-length 2N4R tau expression plasmid. After 3 hours, cell pellet was resuspended in lysis buffer (100 mM PIPES, 1 mM EGTA, 1 mM MgSO4, pH 6.8) and lysed by sonication followed by centrifugation (15,000 rpm, 15 min, 4° C.). The supernatant was then placed in a boiling water bath for 20 min, followed by centrifugation (15,000 rpm, 15 min, 4° C.). Supernatant was loaded onto a Q-Sepharose® Fast Flow column (GE healthcare, Cat. No 17-0510-01), the flow-through fraction was loaded onto an SP-Sepharose® Fast Flow column (GE healthcare, Cat. No 17-0729-01), and tau protein was eluted with elution buffer (100 mM PIPES, 1 M NaCl, 1 mM EGTA, 1 mM MgSO4, 0.2 M NaCl, pH 6.8). Collected fractions of tau-containing eluates were pooled, concentrated and dialyzed against HEPES buffer (25 mM HEPES, 0.1 mM EDTA, 0.5 mM DTT, 100 mM NaCl, pH 7.2) and stored at −80° C. in small aliquots until use. Protein concentration was determined by UV absorption.
(§2) (B) Preparation of heparin-induced aggregated tau (aTau): 2 μM of tau prepared in 30 mM Tris-HCl, pH 7.5 buffer was incubated in tube with 15 μM heparin (Sigma, Cat. No H3149) at 37° C. for 24 hours.
(D) In vitro fluorometric aTau binding assays: 2 μM aTau was diluted to 0.04 μM with 30 mM Tris-HCl (pH 6.8), and then incubated with serially diluted compound (three-fold serial dilutions, from 10 to 0.00017 μM) in a 96-well plate (Corning, Cat. No 3573) at 37° C. for 1 hour. Fluorescence intensity (excitation/emission=370/500 nm) of APN-0729 was read by microplate spectrometer (EnSpire 2300, PerkinElmer). Compound Kd values were calculated using the following equation: Y=Bmax* X (Kd+X), where X is the concentration of compound; Y is the fluorescence signal of (compound+aTau)−(compound+DMSO); and Bmax is the maximum signal.

T1 sequence (P10636 1-441 isoform P10636-8): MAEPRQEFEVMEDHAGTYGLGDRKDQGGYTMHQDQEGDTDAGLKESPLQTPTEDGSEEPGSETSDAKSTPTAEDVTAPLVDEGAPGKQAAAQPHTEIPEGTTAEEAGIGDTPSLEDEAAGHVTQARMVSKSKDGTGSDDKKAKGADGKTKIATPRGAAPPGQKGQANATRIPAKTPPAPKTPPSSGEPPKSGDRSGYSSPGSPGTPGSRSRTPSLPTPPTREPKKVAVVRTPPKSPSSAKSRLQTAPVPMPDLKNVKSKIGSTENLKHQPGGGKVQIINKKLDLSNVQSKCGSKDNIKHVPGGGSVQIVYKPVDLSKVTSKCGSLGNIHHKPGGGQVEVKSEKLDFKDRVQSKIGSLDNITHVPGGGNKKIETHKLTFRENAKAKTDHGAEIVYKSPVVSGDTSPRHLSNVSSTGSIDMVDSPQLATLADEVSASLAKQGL

Row | SMILES | Kd [µM]
1 | CN(C)c1ccc2nc(-c3ccc(-c4ccc(NCCOCCOCCOCCOCCOCCOc5ccc6c(c5)C(=O)N(C5CCC(=O)NC5=O)C6=O)nc4)cc3)sc2c1 (stereo not drawn) [Compound 160275, 2-[2,6-bis(oxo)piperidin-3-yl]-5-[2-[2-[2-[2-[2-[2-[[5-[4-[6-(dimethylamino)-1,3-benzothiazol-2-yl]phenyl]pyridin-2-yl]amino]ethoxy]ethoxy]ethoxy]ethoxy]ethoxy]ethoxy]isoindole-1,3-dione] | 0.23

target: T1, heparin-induced aggregated tau (aTau), full-length 2N4R human Tau; assay: PBB5 competition assay; format: binding; details: 0.12 μM aTau, 0.1 μM PBB5, 37° C. 1 hour, PBB5 fluorescence 530/690 nm
Procedure: as §1, §2
(E) PBBS competition assay: 2 μM of aTau was diluted to 0.12 μM by […] (pH 6.8) and then incubated with 0.1 μM 2-(4-(2-(methylamino)pyridine-5-yl)-1,3-butadiene-1-yl)benzothiazole-6-ol (PBB5) and serially diluted compound (three-fold serial dilution, from 10 to 0.00017 μM) in a 96-well plate (Corning, Cat. No 3573) at 37° C. for 1 hour. Fluorescence intensity (excitation/emission=530/690 nm) of PBB5 was read by microplate spectrometer (EnSpire 2300, PerkinElmer). Percentage of competition was calculated using the following equation: (Max−well of compound alone)/(Max−Min)*100%, where Max=(Tau+PBB5) signals−(buffer+PBB5) signals; and Min=(buffer+PBB5) signals−(buffer+PBB5) signals.
The IC50 value of each compound was calculated with GraphPad Prism software using the “4 Parameter Logistic Model or Sigmoidal Dose-Response Model”:
Y=Bottom+(Top−Bottom)/(1+(IC50/×)^HillSlope)

Row | SMILES | IC50 [µM]
2 | CN(C)c1ccc2nc(-c3ccc(-c4ccc(NCCOCCOCCOCCOCCOCCOc5ccc6c(c5)C(=O)N(C5CCC(=O)NC5=O)C6=O)nc4)cc3)sc2c1 (stereo not drawn) [Compound 160275, 2-[2,6-bis(oxo)piperidin-3-yl]-5-[2-[2-[2-[2-[2-[2-[[5-[4-[6-(dimethylamino)-1,3-benzothiazol-2-yl]phenyl]pyridin-2-yl]amino]ethoxy]ethoxy]ethoxy]ethoxy]ethoxy]ethoxy]isoindole-1,3-dione] | 1.29

same assay, conditions: 0.12 μM aTau, 0.1 μM PBB5, compound up to 10 μM; read-out: Competition Assay with PBB5: Bmax (%)

Row | Emax [%] | SMILES
3 | 100 | CN(C)c1ccc(-c2ccc(-c3cn4cc(OCCOCCN5C(=O)CCC(N6C(=O)c7ccc(O)cc7C6=O)C5=O)ccc4n3)cc2)c(F)n1 (stereo not drawn) [Compound 160570, 2-[1-[2-[2-[2-[4-[6-(dimethylamino)-2-fluoranyl-pyridin-3-yl]phenyl]imidazo[1,2-a]pyridin-6-yl]oxyethoxy]ethyl]-2,6-bis(oxidanylidene)piperidin-3-yl]-5-oxidanyl-isoindole-1,3-dione]
4 | 100 | CN(C)c1ccc2nc(-c3ccc(-c4ccc(NCCOCCN5C(=O)CCC(N6C(=O)c7ccc(O)cc7C6=O)C5=O)nc4)cc3)sc2c1 (stereo not drawn) [Compound 160703, 2-[1-[2-[2-[[5-[4-[6-(dimethylamino)-1,3-benzothiazol-2-yl]phenyl]pyridin-2-yl]amino]ethoxy]ethyl]-2,6-bis(oxidanylidene)piperidin-3-yl]-5-oxidanyl-isoindole-1,3-dione]

Row | SMILES | Emax [%]
5 | CN(C)c1ccc2nc(-c3ccc(-c4ccc(NCCOCCOCCOCCOCCOCCOc5ccc6c(c5)C(=O)N(C5CCC(=O)NC5=O)C6=O)nc4)cc3)sc2c1 (stereo not drawn) [Compound 160275, 2-[2,6-bis(oxo)piperidin-3-yl]-5-[2-[2-[2-[2-[2-[2-[[5-[4-[6-(dimethylamino)-1,3-benzothiazol-2-yl]phenyl]pyridin-2-yl]amino]ethoxy]ethoxy]ethoxy]ethoxy]ethoxy]ethoxy]isoindole-1,3-dione] | 96

target: T2, Tau aggregates in P301L-Tau-FL-GFP HEK293 cells (Homo sapiens, UniProt P10636, P618L); assay: Tau degradation assay (APNmAb005 ELISA-based Tau aggregation assay); format: cell-based; details: 1 μM compound, APNmAb005 ELISA
T2 construct: express full-length human tau T40 (2N4R) carrying the P301L mutation with a GFP tag; expressed in transfected cells
Procedure: (A). Cell-based model of Tau inclusion formation: Six month old rTg4510 mouse brain lysates were used as the source of tau seeds, prepared as described in Example 26 above. P301L-Tau-FL-GFP HEK293 cells represent HEK293 cells express full-length human tau T40 (2N4R) carrying the P301L mutation with a GFP tag (P301L-Tau-FL-GFP). 1×10^6 of P301L-Tau-FL-GFP HEK293 cells were cultured on a 6-well plate in culture medium containing DMEM/F-12 (Gibco) supplemented with 10% fetal bovine serum (FBS) (Gibco), 1% Penicillin-Streptomycin (Gibco) and 0.5 mg/ml geneticin (Thermo Fisher Scientific) for 24 hours to reach 70-90% confluency, indicating the cells were ready for transfection. 50 μg of 6-month-old rTg4510 mouse brain lysate was diluted in 400 μL of serum free medium and mixed with 16 μL of lipofectamine 3000 reagent (Thermo Fisher Scientific) diluted in 400 μl of serum free medium. A solution mixture of rTg4510 brain lysate and lipofectamine 3000 was incubated at room temperature for 25 min. The culture media were removed, and then a solution mixture of rTg4510 lysate and lipofectamine 3000 was added to the cells for transfection. The solution mixture was incubated at room temperature for five hours, followed by medium change to 10% fetal bovine serum (FBS). After two-day incubation, Tau aggregates (Tau spots) were induced and images were acquired by ImageXpress Micro Confocal high-content imaging system (Molecular Devices) as described in Example 52 above. Analysis was performed by two customized modules in MetaXpress software (Molecular Devices) for aggregated tau analysis. Output included cell numbers, numbers of tau spots, average intensity of tau spots, and average size of tau spots.
(B). Compound treatment: 100 μL of 3×10^4 cells comprising Tau aggregates, prepared as described above in step (A), were plated on a 96-well plate coated with poly-D-lysine (BD Biosciences) and cultured for 24 hours. Compounds to be tested were dissolved in culture medium containing 0.1% DMSO. Each of test compounds in the concentration of 1, 0.2 and 0.04 μM was added to the cells comprising Tau aggregates and incubated at 37° C. for 24 hours. After that, culture medium was removed, cells were washed with PBS solution and then lysed using 30 μL of lysis buffer (PBS containing 0.3% Triton X-100 and 400 mM NaCl) for one hour at 4° C., and then cell lysate was diluted by 170 μl of PBS containing 400 mM NaCl. Cell lysate was filtrated by a […] filtration plate (Pall) and applied for Tau aggregation assay.
(C). Control cell lysate: control cell lysate was collected from non-seeded cells.
(D). ELISA-based Tau aggregation assay: APNmAb005 ELISA kit for Tau aggregation assay was designed and developed to detect abnormal tau aggregates in buffered solution or cell lysate by using anti-Tau APNmab005 as capture and detection antibody. This antibody is a highly specific antibody bound to human tau aggregates accumulated in mammalian cells. APNmAb005 is recited in PCT Patent Application No. PCT/M2020/057415, filed Aug. 5, 2020, which is incorporated herein by reference.
0.15 μg of APNmAb005 in 100 mM sodium carbonate buffer (pH 9.6) was coated on a high-binding polystyrene 96-well microplate (Greiner Bio-One) at 4° C. overnight. The microplate was washed with PBS followed by treatment with Intercept (PBS) blocking buffer (LI-COR) at room temperature for 2 hours. After that, the microplate was washed with PBS, and then the cell lysate with compound treatment, prepared as described above in step (C), was added into each well of the microplate and incubated at room temperature for 2 hours. The microplate was washed with PBS and then incubated with HRP-conjugated secondary antibody APNmAb005 at room temperature for 3 hours. HRP-conjugated secondary antibody APNmAb005 was prepared using HRP conjugation kit (Abcam,ab102890). The microplate was then washed with PBS and incubated with 100 μL of horseradish peroxidase (HRP) substrate at room temperature. […]

T2 sequence (P10636 1-441 isoform P10636-8 P301L): as the sequence (P10636 1-441 isoform P10636-8) above, with P301L counted along it

Row | Optical Density (O.D.) 450 value decrease compared to vehicle (reduction of Tau aggregates) [%] | SMILES
6 | 20 | CN(C)c1ccc(-c2ccc(-c3cn4cccc(OCCOCCOc5ccc6c(c5)CN(C5CCC(=O)NC5=O)C6=O)c4n3)cc2)cn1 (stereo not drawn) [Compound 162842]

same assay, conditions: 1 μM of compound, 24 hours, P301L-Tau-FL-GFP HEK293 cells seeded with rTg4510 brain lysate; read-out: Activity (reduction of tau aggregates)

Row | SMILES | inhibition at 1 µM [%]
7 | CN(C)c1ccc(-c2ccc(-c3nc4ccc(NCCOCCOCCOCCOc5ccc6c(c5)C(=O)N(C5CCC(=O)NC5=O)C6=O)cc4s3)cc2)cn1 (stereo not drawn) [Compound 160939, 2-[2,6-bis(oxo)piperidin-3-yl]-5-[2-[2-[2-[2-[[2-[4-[6-(dimethylamino)pyridin-3-yl]-phenyl]-1,3-benzothiazol-6-yl]amino]ethoxy]ethoxy]ethoxy]ethoxy]isoindole-1,3-dione] | < 10
8 | COc1ccc2nc(-c3ccc(-c4ccc(NCCOCCOc5ccc6c(c5)C(=O)N(C5CCC(=O)NC5=O)C6=O)nc4F)cc3)cn2c1 (stereo not drawn) [Compound 161215, 2-[2,6-bis(oxo)piperidin-3-yl]-5-[2-[2-[[6-fluoro-5-[4-(6-methoxyimidazo[1,2-a]pyridin-2-yl)phenyl]pyridin-2-yl]amino]ethoxy]ethoxy]isoindole-1,3-dione] | 10 to 20
9 | COc1ccc2nc(-c3ccc(-c4ccc(NCCOCCOCCOCCOCCOCCOc5ccc6c(c5)C(=O)N(C5CCC(=O)NC5=O)C6=O)nc4F)cc3)cn2c1 (stereo not drawn) [Compound 161409] | 10 to 20
10 | COc1ccc2nc(-c3ccc(-c4ccnc(NCCOCCOc5ccc6c(c5)CN(C5CCC(=O)NC5=O)C6=O)c4)cc3)cn2c1 (stereo not drawn) [Compound 162640, 3-[6-[2-[2-[[4-[4-(6-methoxyimidazo[1,2-a]pyridin-2-yl)phenyl]pyridin-2-yl]amino]ethoxy]ethoxy]-3-oxidanylidene-1H-isoindol-2-yl]piperidine-2,6-dione] | 10 to 20
11 | CN(C)c1ccc(-c2ccc(-c3cn4cccc(OCCOCCOc5ccc6c(c5)CN(C5CCC(=O)NC5=O)C6=O)c4n3)cc2)cn1 (stereo not drawn) [Compound 162842] | > 20

The next lines start with the values.

Row | inhibition at 1 µM [%] | SMILES
12 | 10 to 20 | CN(C)c1ccc(-c2ccc(-c3nc4ccc(OCCOCCOc5ccc6c(c5)CN(C5CCC(=O)NC5=O)C6=O)cc4s3)c(C(F)(F)F)c2)cn1 (stereo not drawn) [Compound 162903]
13 | 10 to 20 | CN(C)c1ccc(-c2ccc(-c3nc4ccc(OCCOCCOc5ccc6c(c5)CN(C5CCC(=O)NC5=O)C6=O)cc4s3)cc2)cn1 (stereo not drawn) [Compound 163123]
14 | 10 to 20 | CN(C)c1ccc(-c2ccc(-c3nc4ccc(OCCOCCOc5ccc6c(c5)CN(C5CCC(=O)NC5=O)C6=O)cc4o3)cc2)cn1 (stereo not drawn) [Compound 163365]
15 | 10 to 20 | CN(C)c1ccc(-c2ccc(-c3cn4cc(OCCOCCN5C(=O)CCC(N6C(=O)c7ccc(O)cc7C6=O)C5=O)ccc4n3)cc2)c(F)n1 (stereo not drawn) [Compound 170350]
16 | < 10 | CN(C)c1ccc(-c2ccc(-c3nc4ccc(OCCOCCOCCOc5ccc6c(c5)CN(C5CCC(=O)NC5=O)C6=O)cc4s3)c(C(F)(F)F)c2)cn1 (stereo not drawn) [Compound 174251]
17 | < 10 | CN(C)c1ccc2nc(-c3ccc(-c4ccc(NCCOCCOc5ccc6c(c5)CN(C5CCC(=O)NC5=O)C6=O)nc4)cc3C(F)(F)F)sc2c1 (stereo not drawn) [Compound 177031]
18 | < 10 | COc1ccc2nc(-c3ccc(-c4ccc(NCCOCCOc5cccc6c5C(=O)N(C5CCC(=O)NC5=O)C6=O)nc4)cc3)sc2c1 (stereo not drawn) [Compound 177038]
